Data as given in ChEMBL document CHEMBL5360638, “Development of an Affinity-Based Probe to Profile Endogenous Human Adenosine A3 Receptor Expression” (J Med Chem, 2023).
The source made the active and inactive calls. No cut-off for these calls is given here.

Experiments:
[1] = target: T1, Adenosine receptor A3 (Homo sapiens) (UniProt P0DMS8); test: Binding affinity to human A3AR expressed in eosinophil incubated for 1 hr by flow cytometry analysis; assay type: cell-based
T1 sequence (whole entry): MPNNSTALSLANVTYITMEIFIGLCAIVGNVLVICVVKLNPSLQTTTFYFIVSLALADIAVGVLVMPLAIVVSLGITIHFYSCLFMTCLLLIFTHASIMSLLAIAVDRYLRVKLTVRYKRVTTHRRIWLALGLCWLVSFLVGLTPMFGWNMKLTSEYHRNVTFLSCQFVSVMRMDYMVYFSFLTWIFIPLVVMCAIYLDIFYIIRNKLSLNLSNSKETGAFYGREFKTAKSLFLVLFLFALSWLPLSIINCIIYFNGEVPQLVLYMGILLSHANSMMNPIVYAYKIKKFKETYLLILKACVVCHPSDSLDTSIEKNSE

Homo sapiens = organism: Homo sapiens; test: Selectivity ratio of pKi for human A3AR to pKi for human A1AR
[2] = target: T1, Adenosine receptor A3 (Homo sapiens); test: Binding affinity to human A3AR expressed in CHO cells membrane at 50 nM incubated for 1 hr by SDS-PAGE analysis; assay type: cell membranes
[3] = target: T1, Adenosine receptor A3 (Homo sapiens); test: Binding affinity to human A3AR expressed in granulocytes incubated for 1 hr by flow cytometry analysis; assay type: cell-based
[4] = target: T1, Adenosine receptor A3 (Homo sapiens); test: Binding affinity to human A3AR at 50 nM incubated for 1 hr by SDS-PAGE analysis

| SMILES | Activity [1] | Ratio pKi (Homo sapiens) | Activity [2] | Activity [3] | Activity [4] |
| --- | --- | --- | --- | --- | --- |
| C#CCOc1ccn2c(c1)nc1c2c(=O)n(CCC)c(=O)n1CCCNC(=O)c1ccc(S(=O)(=O)F)cc1 | Active | > 17 | Active | inactive | Active |
| C#CCn1c(=O)c2c(nc3cc(OC)ccn32)n(CCCNC(=O)c2ccc(S(=O)(=O)F)cc2)c1=O | – | – | – | – | Active |
| C#CCN(CCCn1c(=O)n(CCC)c(=O)c2c1nc1cc(OC)ccn12)C(=O)c1ccc(S(=O)(=O)F)cc1 | – | > 100 | – | – | Active |
